Experimental data reported in patent US10376520B2, “Methods for the treatment of cardiovascular disorders” (Galapagos NV, priority 2015, dated 2019).

System: RA patients
Experiment: [HDL] determination, Study 1 (RA patients, add-on to MTX)
Type: in vivo, human
Experimental: Double-blind, placebo-controlled add on study in subjects with moderately to severely active RA who have an inadequate response to methotrexate (MTX) (oral or parenteral).
595 subjects randomized to one of 6 dose regimens of Compound 1 (dosed as a [Compound 1:HCl:3H2O]) (3 dose levels administered either once or twice daily) or placebo on top of each subject's stable dose of MTX.
Compound 1 (dosed as a [Compound 1:HCl:3H2O]) is dosed for twelve weeks once daily (q.d.) (50 mg, 100 mg or 200 mg) or twice daily (b.i.d.) (25 mg, 50 mg or 100 mg); or placebo.
At Week 12, the subjects on placebo who have not achieved 20% improvement in swollen joint count (SJC66) and tender joint count (TJC68) are re-randomized automatically to receive Compound 1 (dosed as a [Compound 1:HCl:3H2O]) either at 100 mg q.d. or 50 mg b.i.d. doses in a blinded fashion; subjects on 50 mg q.d. who have not achieved 20% improvement in SJC66 and TJC68 will be assigned to 100 mg q.d. and subjects on 25 mg b.i.d. that have not achieved a 20% improvement in SJC66 and TJC68 will be assigned to 50 mg b.i.d. Subjects who switch treatment at week 12 are handled as if they discontinued at week 12 for the purpose of statistical analysis, whereas subjects in the other groups will maintain their randomized treatment until Week 24.
This assay relies on a homogeneous enzymatic colorimetric test. In the presence of magnesium ions, dextran sulfate selectively forms water-soluble complexes with LDL, VLDL and chylomicrons which are resistant to PEG-modified enzymes.
The cholesterol concentration of [HDL]-cholesterol is determined enzymatically by cholesterol esterase and cholesterol oxidase coupled with PEG to the amino groups (approx. 40%).
In the presence of peroxidase, the hydrogen peroxide generated reacts with 4-amino-antipyrine and Sodium N-(2-hydroxy-3-sulfopropyl)-3,5-dimethoxyaniline (HSDA) to form a purple-blue dye. The color intensity of this dye is directly proportional to the cholesterol concentration and is measured photometrically.
Human serum and plasma samples [HDL] determination was done on a Roche/Hitachi Cobas c 701/702 system which automatically calculate the analyte concentration of each sample. Samples containing precipitates are centrifuged before performing the assay.

[1] = 2 x 25 mg b.i.d. (N = 86), week 1
[2] = 2 x 25 mg b.i.d. (N = 86), week 2
[3] = 2 x 25 mg b.i.d. (N = 86), week 4
[4] = 2 x 25 mg b.i.d. (N = 86), week 8
[5] = 2 x 25 mg b.i.d. (N = 86), week 12
[6] = 2 x 50 mg b.i.d. (N = 85), week 1
[7] = 2 x 50 mg b.i.d. (N = 85), week 2
[8] = 2 x 50 mg b.i.d. (N = 85), week 4
[9] = 2 x 50 mg b.i.d. (N = 85), week 8

## O=C(Nc1nc2cccc(-c3ccc(CN4CCS(=O)(=O)CC4)cc3)n2n1)C1CC1 [Compound 1, cyclopropanecarboxylic acid {5-[4-(1,1-dioxo-thiomorpholin-4-ylmethyl)-phenyl]-[1,2,4]triazolo[1,5-a]pyridin-2yl}-amide]
50 mg q.d. (N = 82), week 1
  [HDL] Mean CFB - 12 weeks results: 0.02 mmol/L
  [HDL] Mean percentage CFB - 12 weeks results: 2%
  [HDL] Median CFB - 12 weeks results: 0.01 mmol/L
50 mg q.d. (N = 82), week 2
  [HDL] Mean CFB - 12 weeks results: 0.08 mmol/L
  [HDL] Mean percentage CFB - 12 weeks results: 5%
  [HDL] Median CFB - 12 weeks results: 0.08 mmol/L
50 mg q.d. (N = 82), week 4
  [HDL] Mean CFB - 12 weeks results: 0.06 mmol/L
  [HDL] Mean percentage CFB - 12 weeks results: 5%
  [HDL] Median CFB - 12 weeks results: 0.05 mmol/L
50 mg q.d. (N = 82), week 8
  [HDL] Mean CFB - 12 weeks results: 0.06 mmol/L
  [HDL] Mean percentage CFB - 12 weeks results: 6%
  [HDL] Median CFB - 12 weeks results: 0.10 mmol/L
50 mg q.d. (N = 82), week 12
  [HDL] Mean CFB - 12 weeks results: 0.06 mmol/L
  [HDL] Mean percentage CFB - 12 weeks results: 7%
  [HDL] Median CFB - 12 weeks results: 0.05 mmol/L
100 mg q.d. (N = 85), week 1
  [HDL] Mean CFB - 12 weeks results: 0.05 mmol/L
  [HDL] Mean percentage CFB - 12 weeks results: 5%
  [HDL] Median CFB - 12 weeks results: 0.06 mmol/L
100 mg q.d. (N = 85), week 2
  [HDL] Mean CFB - 12 weeks results: 0.07 mmol/L
  [HDL] Mean percentage CFB - 12 weeks results: 7%
  [HDL] Median CFB - 12 weeks results: 0.07 mmol/L
100 mg q.d. (N = 85), week 4
  [HDL] Mean CFB - 12 weeks results: 0.11 mmol/L
  [HDL] Mean percentage CFB - 12 weeks results: 9%
  [HDL] Median CFB - 12 weeks results: 0.13 mmol/L
100 mg q.d. (N = 85), week 8
  [HDL] Mean CFB - 12 weeks results: 0.09 mmol/L
  [HDL] Mean percentage CFB - 12 weeks results: 8%
  [HDL] Median CFB - 12 weeks results: 0.11 mmol/L
100 mg q.d. (N = 85), week 12
  [HDL] Mean CFB - 12 weeks results: 0.10 mmol/L
  [HDL] Mean percentage CFB - 12 weeks results: 8%
  [HDL] Median CFB - 12 weeks results: 0.10 mmol/L
200 mg q.d. (N = 86), week 1
  [HDL] Mean CFB - 12 weeks results: 0.11 mmol/L
  [HDL] Mean percentage CFB - 12 weeks results: 9%
  [HDL] Median CFB - 12 weeks results: 0.13 mmol/L
200 mg q.d. (N = 86), week 2
  [HDL] Mean CFB - 12 weeks results: 0.20 mmol/L
  [HDL] Mean percentage CFB - 12 weeks results: 17%
  [HDL] Median CFB - 12 weeks results: 0.20 mmol/L
200 mg q.d. (N = 86), week 4
  [HDL] Mean CFB - 12 weeks results: 0.24 mmol/L
  [HDL] Mean percentage CFB - 12 weeks results: 20%
  [HDL] Median CFB - 12 weeks results: 0.25 mmol/L
200 mg q.d. (N = 86), week 8
  [HDL] Mean CFB - 12 weeks results: 0.29 mmol/L
  [HDL] Mean percentage CFB - 12 weeks results: 22%
  [HDL] Median CFB - 12 weeks results: 0.30 mmol/L
200 mg q.d. (N = 86), week 12
  [HDL] Mean CFB - 12 weeks results: 0.27 mmol/L
  [HDL] Mean percentage CFB - 12 weeks results: 21%
  [HDL] Median CFB - 12 weeks results: 0.26 mmol/L
[1]
  [HDL] Mean CFB - 12 weeks results: 0.00 mmol/L
  [HDL] Mean percentage CFB - 12 weeks results: 0%
  [HDL] Median CFB - 12 weeks results: 0.00 mmol/L
[2]
  [HDL] Mean CFB - 12 weeks results: 0.04 mmol/L
  [HDL] Mean percentage CFB - 12 weeks results: 4%
  [HDL] Median CFB - 12 weeks results: 0.05 mmol/L
[3]
  [HDL] Mean CFB - 12 weeks results: 0.05 mmol/L
  [HDL] Mean percentage CFB - 12 weeks results: 4%
  [HDL] Median CFB - 12 weeks results: 0.05 mmol/L
[4]
  [HDL] Mean CFB - 12 weeks results: 0.06 mmol/L
  [HDL] Mean percentage CFB - 12 weeks results: 5%
  [HDL] Median CFB - 12 weeks results: 0.10 mmol/L
[5]
  [HDL] Mean CFB - 12 weeks results: 0.06 mmol/L
  [HDL] Mean percentage CFB - 12 weeks results: 6%
  [HDL] Median CFB - 12 weeks results: 0.05 mmol/L
[6]
  [HDL] Mean CFB - 12 weeks results: 0.03 mmol/L
  [HDL] Mean percentage CFB - 12 weeks results: 4%
  [HDL] Median CFB - 12 weeks results: 0.05 mmol/L
[7]
  [HDL] Mean CFB - 12 weeks results: 0.12 mmol/L
  [HDL] Mean percentage CFB - 12 weeks results: 10%
  [HDL] Median CFB - 12 weeks results: 0.10 mmol/L
[8]
  [HDL] Mean CFB - 12 weeks results: 0.13 mmol/L
  [HDL] Mean percentage CFB - 12 weeks results: 12%
  [HDL] Median CFB - 12 weeks results: 0.13 mmol/L
[9]
  [HDL] Mean CFB - 12 weeks results: 0.13 mmol/L
  [HDL] Mean percentage CFB - 12 weeks results: 11%
  [HDL] Median CFB - 12 weeks results: 0.14 mmol/L
